In US6911550B2, “Derivatives of seleno-amino acids with improved bioavailability and method for their preparation” (priority 2003, dated 2005):
Counter-ions that a name gives are not always drawn.

Columns and labels:
glutathione peroxidase [1] = assay: Glutathione peroxidase activity in selenium-depleted lambs fed selenium sources; format: in vivo; conditions: for Whole blood glutathione peroxidase activity, difference between selenium sources / Plasma glutathione peroxidase activity compared with sodium selenite / Glutathione peroxidase activities in kidney, liver, and muscle compared to sodium selenite: lambs; for Whole blood glutathione peroxidase activity, difference between selenium sources: day 14; for Plasma glutathione peroxidase activity compared with sodium selenite: day 28, 0.05 ppm Se; for Glutathione peroxidase activities in kidney, liver, and muscle compared to sodium selenite: supplemented for 56 days; for Relative bioavailability based on glutathione peroxidase activity, Plasma, day 14 / Relative bioavailability based on glutathione peroxidase activity, Plasma, day 28 / Relative bioavailability based on glutathione peroxidase activity, Heart / Relative bioavailability based on glutathione peroxidase activity, Kidney / Relative bioavailability based on glutathione peroxidase activity, Liver / Relative bioavailability based on glutathione peroxidase activity, Muscle: sheep, po; for Relative bioavailability based on glutathione peroxidase activity, Plasma, day 14: 14 days; for Relative bioavailability based on glutathione peroxidase activity, Plasma, day 28: 28 days; for Relative bioavailability based on glutathione peroxidase activity, Heart / Relative bioavailability based on glutathione peroxidase activity, Kidney / Relative bioavailability based on glutathione peroxidase activity, Liver / Relative bioavailability based on glutathione peroxidase activity, Muscle: 56 days
Excerpt: (§1) […] lambs with average weight of 18.5 kg were used. […] Lambs were weaned at approximately two months of age and placed in plastic pens with plastic feeders and stainless steel waterers. For 56 days lambs were fed feedstuff low in selenium. Jugular blood samples were obtained from all lambs on days 0, 28 and 56. At the end of the 56-day depletion period, lambs were stratified by weight and randomly assigned to […]. The treatments consisted of: 1) Control, 2) sodium selenite, 3) L-selenomethionine and 4) zinc L-selenomethionine. The selenium sources were added to provide 0.05 ppm of supplemental selenium for 28 days and then the amount of selenium from each source was increased to 0.1 ppm for additional 28 days. Blood samples were collected via jugular puncture on days 0, 14, 28 and 56. Whole blood and plasma glutathione peroxidase activity in samples obtained on days 0, 14, 28, and 56. Plasma selenium was measured in samples obtained on days 0, 28, and 56. Six lambs from each treatment were slaughtered at the end of the study and samples of liver, kidney, muscle, and heart were obtained for the determination of selenium and glutathione peroxidase activities.

[2] = Plasma and tissue selenium concentrations in selenium-depleted lambs fed selenium sources; format: in vivo; conditions: for Relative bioavailability based on tissue selenium concentration, Heart / Relative bioavailability based on tissue selenium concentration, Kidney / Relative bioavailability based on tissue selenium concentration, Liver / Relative bioavailability based on tissue selenium concentration, Muscle: sheep, po, 56 days
Excerpt: as §1

Solubility in water = format: physicochemical
Description: L-Selenomethionine (97.8 mg, 0.5 mmole) was added to water (45 ml) in a 250-ml round bottom flask placed in an ice-bath. The mixture was vigorously stirred by using a magnetic stirrer and a Teflon coated stir-bar. […] Zinc chloride (68.20 mg, 0.5 mmole) was added with continued stirring. A clear solution was immediately formed. The solution was concentrated to dryness at temperature 40° C. under reduced pressure. A hygroscopic colorless solid was formed.

glutathione peroxidase [3] = assay: Plasma glutathione peroxidase activity in broilers; format: in vivo; conditions: day 49
Description: (§2) One day old male and female birds were used in the study. Male and females were housed separately and randomly assigned to 6 blocks of 8 pens each (4 females and 4 males). The pens contained 50 females or 45 males. Two extra birds were added to each pen at the start of the experiment to allow for mortality and culls. On day 7 the number of birds in each per were adjusted to 50 females and 45 males. Three treatments were assigned to pens using a complete randomized block design. The treatments included: 1) negative control (no additional selenium), 2) sodium selenite, and 3) zinc L-selenomethionine. Birds were housed in concrete floor pens of an environmentally controlled facility. Environmental conditions were similar for all birds in all experimental groups. […] All feed added and removed from pens from day 0 to the end of the study was weighed and recorded. […] The feed intake for each pen was determined by subtracting the amount of feed remaining in the feeder at the end of the study period from the amount of feed weighed into the pen. Average bird weight was calculated on a pen basis. […] Blood was collected in heparinized tubes, plasma was separated and stored at −20° C. until analyzed for selenium and glutathione peroxidase. […] A 100 g sample of the right breast was collected from each bird and stored at −20° C. until analyzed for selenium.

[4] = Tissue selenium concentrations in grow-finish pigs; format: in vivo
Excerpt: (§3) Sixteen pigs with an average weight of 22.9 kg were stratified by weight within sex and randomly assigned to treatments consisting of 0.3 ppm supplemental selenium from either sodium selenite or zinc L-selenomethionine hydrochloride. Pigs were housed in pens and each treatment consisted of four replicate pens each housed one gilt and one […]. Pigs were fed diets that were formulated to meet NRC requirements. Pigs were fed the growing diet for 56 days and then the finishing diet for 33 days. The average pig weight at the end of the growing and finishing phases was 69.6 and 101.2 kg, respectively. Body weights of each pig were determined initially and at the end of the growing and finishing phases. At the end of the study, pigs were slaughtered and samples of liver, muscle, heart and kidney were collected for selenium determination.

[5] = Performance of grow-finish pigs fed selenium sources; format: in vivo; conditions: for Feed Intake / Feed/Gain / Gain: 0.3 ppm supplemental selenium
Excerpt: as §3

[6] = Plasma selenium concentration in broilers; conditions: both, chicken (broilers), in vivo, 49 days
Description: as §2

[7] = Stability of a zinc L-selenomethionine solution on storage (HPLC); format: physicochemical
Description: FTIR Identification: A 100 μL of the extract was added to 100 mg of FTIR grade potassium bromide powder and mixed well. The mixer was dried in an oven at 75° C. A pellet was formed and the FTIR spectrum of the sample was recorded. […] (w, weak; m, medium; s, strong; vs, very strong). This spectrum is different than that of L-selenomethionine. Of interest is the absence of the weak to medium band at around 2118 cm^−1 characteristic of free amino acids. HPLC Determination: The concentration of zinc L-selenomethionine in the water extract was determined by HPLC. A Shimadzu instrument composed of SCL-10A-VP Controller, Dual LC-10AD-VP Pumps, SIL-10 Ai Auto sampler, and SCD-10AV-VP UV/Visible Detector set at 210 nm. A Discovery Cyano 5μ column (25 cm×4.6 mm) was used at 25° C. The mobile phase was a 0.1% Glacial acetic Acid at 1.00 mL/min. A 50 μL of the standard or sample solution was injected by the auto sampler. A set of 5 standards were prepared to contain 0.1567, 0.3134, 0.4701, 0.6268, and 0.7835 mg/ml of Zinc L-Selenomethionine. A 100 μL of the sample extract was diluted with 900 μL water and used as sample solution. Standards and sample solutions are filtered through a 2μ filter before injection. Standards and sample contained only a single component with a retention time of 3.975 min. Linear regression was used to construct a correlation graph of area under the peak vs. concentration. The concentration of zinc L-selenomethionine in the sample solution was calculated from the correlation graph and found to be 0.3898 mg/mL corresponding to 18.79% Zinc L-Selenomethionine or 5.67% Selenium in the original Premix.
About 2.0 g of a Zinc L-Selenomethionine Premix 5% Se was accurately weighed and transferred into a 100-ml volumetric flask. Water was added to volume. The flask was stoppered and its contents were mixed vigorously. The mixture was allowed to settle and a sample of the supernatant was removed carefully and filtered through a […]. The concentration of zinc L-selenomethionine in the filtrate was determined by HPLC as described in EXAMPLE 2. Analysis was conducted immediately after the solution was prepared and repeated at 30 days and 90 days after storing at an ambient temperature averaging 18° C. and 50% relative humidity.

[8] = Rumen degradation after ingestion; conditions: in vivo

Row | SMILES | Whole blood glutathione peroxidase activity, difference between selenium sources (glutathione peroxidase [1]) | Plasma glutathione peroxidase activity compared with sodium selenite (glutathione peroxidase [1]) | Glutathione peroxidase activities in kidney, liver, and muscle compared to sodium selenite (glutathione peroxidase [1]) | Relative bioavailability based on glutathione peroxidase activity, Plasma, day 14 (glutathione peroxidase [1]; in vivo) | Relative bioavailability based on glutathione peroxidase activity, Plasma, day 28 (glutathione peroxidase [1]; in vivo) | Relative bioavailability based on glutathione peroxidase activity, Heart (glutathione peroxidase [1]; in vivo) | Relative bioavailability based on glutathione peroxidase activity, Kidney (glutathione peroxidase [1]; in vivo) | Relative bioavailability based on glutathione peroxidase activity, Liver (glutathione peroxidase [1]; in vivo) | Relative bioavailability based on glutathione peroxidase activity, Muscle (glutathione peroxidase [1]; in vivo) | Heart and liver selenium concentrations compared with sodium selenite ([2]; in vivo) | Relative bioavailability based on tissue selenium concentration, Heart ([2]; in vivo) | Relative bioavailability based on tissue selenium concentration, Kidney ([2]; in vivo) | Relative bioavailability based on tissue selenium concentration, Liver ([2]; in vivo) | Relative bioavailability based on tissue selenium concentration, Muscle ([2]; in vivo) | Solubility in water (Solubility in water) | Glutathione Peroxidase Activity (glutathione peroxidase [3]) | Feed Intake ([5]; Finishing Phase (33 days)) [kg] | Feed/Gain ([5]; Finishing Phase (33 days)) | Gain ([5]; Finishing Phase (33 days)) [kg/day] | Feed Intake ([5]; Growing Phase (56 days)) [kg] | also measured
1 | C[Se]CC[C@H](N)C(=O)O [L-Selenomethionine, reference compound] | no difference | higher | higher activities | 124 | 138 | 107 | 100 | 161 | 186 | higher heart and liver selenium concentrations | 139 | 59 | 206 | 133 | did not completely go into solution |  |  |  |  |  | Plasma selenium compared with sodium selenite ([2]; in vivo): higher plasma selenium
2 | O=[Se](O)O [Sodium Selenite, reference compound] |  |  |  |  |  |  |  |  |  |  |  |  |  |  |  | 14.0 | 2.57 | 2.71 | 0.95 | 1.74 | Plasma selenium concentration, difference between selenium sources ([2]; lambs, day 28): no difference; Kidney selenium concentrations, sodium selenite versus zinc L-selenomethionine ([4]; pigs): similar; Feed/Gain ([5]; Growing Phase (56 days)): 2.15; Gain ([5]; Growing Phase (56 days)): 0.81 kg/day; Feed Intake ([5]; Total): 2.05 kg; Feed/Gain ([5]; Total): 2.38; Gain ([5]; Total): 0.86 kg/day
3 | C[Se]CC[C@@H]1[NH][Zn][O]C1=O [Zn L-Selenomethionine, Zinc L-Selenomethionine Hydrochloride] | no difference | higher | higher activities | 145 | 149 | 126 | 128 | 152 | 200 | higher heart and liver selenium concentrations | 158 | 74 | 160 | 85 |  | 14.9 | 2.22 | 2.31 | 0.96 | 1.86 | Bioavailability compared with sodium selenite and L-selenomethionine (glutathione peroxidase [1]; in vivo): more bioavailabe; Plasma selenium compared with sodium selenite ([2]; lambs, day 56): higher plasma selenium; Kidney selenium concentrations, sodium selenite versus zinc L-selenomethionine ([4]; pig, in vivo): similar; Selenium concentrations in liver, muscle and heart compared with sodium selenite ([4]; pig, in vivo): higher selenium concentrations; Plasma Selenium Concentration [6]: 0.177 ppm; Stability of the water solution on storage [7]: stable on storage; Concentration of zinc L-selenomethionine in the solution ([7]; after 30 days at ambient temperature averaging 18° C. and 50% relative humidity): 18.89%; Concentration of zinc L-selenomethionine in the solution ([7]; after 90 days at ambient temperature averaging 18° C. and 50% relative humidity): 18.78%; Concentration of zinc L-selenomethionine in the solution ([7]; day of preparation, solution of Premix 5% Se in water): 18.95%; Change of concentration of zinc L-selenomethionine in the solution ([7]; thirty day storage at ambient temperature and humidity): less than 0.5%; Rumen degradation after ingestion [8]: resistant to rumen degradation; Gain/feed ratio compared with sodium selenite [5]: higher; Feed/Gain ([5]; Growing Phase (56 days)): 2.16; Gain ([5]; Growing Phase (56 days)): 0.86 kg/day; Feed Intake ([5]; Total): 2.00 kg; Feed/Gain ([5]; Total): 2.22; Gain ([5]; Total): 0.90 kg/day; Feed consumed compared with sodium selenite ([5]; finishing phase): consumed less feed
4 | C[Se]C[C@H](N)C(=O)O.Cl.[Zn] [zinc Se-methyl-L-selenocysteine complex, Zinc L-Se-Methylselenocysteine Hydrochloride] |  |  |  |  |  |  |  |  |  |  |  |  |  |  | readily soluble in water |  |  |  |  |  | Stability of the water solution on storage [7]: stable solution
